According to a melting point compilation (Tetko et al.; mined from patent text by program, amines drawn as free bases though some values may be those of a salt):

melting point [°C] | Structure (SMILES)
119 to 120 | CCN(Cc1cc(Cl)ccc1OCC1CC1)c1ccc(C(=O)O)nn1
162 to 165 | CC(=O)c1c(O)cccc1OCC(F)COc1cccc(O)c1C(C)=O
85 to 87 | CCN(CC)c1ccc(C(=O)C#Cc2ccncc2)cc1
123 to 126 | COc1ccc(S(=O)(=O)/C(=C/C(=O)NO)CCCCc2ccccc2)cc1OC
94 to 95 | CCCc1sc(N)c(C(=O)c2ccc(Cl)cc2)c1C
166 | C=C[C@@H]1O[C@](/C=C/C2CC2)(C(F)(F)F)c2cc(Cl)ccc2NC1=O (relative stereo)
166 to 170 | CCOC(=O)c1[nH]c2cccc3c2c1CCC3O (stereo not given)
103 to 104 | Cc1cc(-c2cccc(C(F)(F)F)c2)c2nc(OC(F)F)cnc2c1
62 to 63 | COC(=O)c1ccc(OCC2CCCCC2)cc1
91 to 92 | Cc1cc(C2OC(C)(C)N=C2c2ccccc2)cc(C)c1N(C)C (stereo not given)
199 to 201 | CCCc1c(OCC(O)COc2ccc3c(=O)cc(C(=O)O)oc3c2CCC)ccc(C(C)=O)c1O (stereo not given)
138 to 145 | CCCCc1nccn1Cc1ccc2oc(-c3ccccc3C(=O)O)c(Br)c2c1
139 to 140 | CC1Nc2ccc(-c3cccc(F)c3)cc2C(C)(C)O1 (stereo not given)
63 to 64 | CCc1nc(C(=O)c2ccc(Cl)cc2Cl)c(C(C)=O)n1C(CC)CC
53 to 54 | COc1ccc(C(=O)CSc2cccc(OC)c2)cc1
143 to 144 | CCC(CC)c1cccc(C[C@H]2C(=O)O[C@H](c3ccccc3)[C@H](c3ccccc3)N2C(=O)OC(C)(C)C)c1
137 to 138 | CC(C)(C)n1c(Cl)c(-c2ccc(Oc3ccccc3)cc2)c2c(N)ncnc21
209 | CCN1CCC(C(=O)O)(S(=O)(=O)c2ccc(OC)cc2)CC1
150 | CCCCC1CCc2cc(C(=O)C(C)C)cc3c(CCN4CCN(c5cc(C)ccn5)CC4)c(C)n1c23 (stereo not given)
106 to 108 | COc1ccc2c(c1)N(C(C)=O)c1cccc(SC)c1S2
184 | CCCCCNS(=O)(=O)NC(=O)/C=C/c1c(C)nn(C)c1-n1ccc2cc(Cl)ccc21
111 to 113 | CC(C)(C)C(=O)C(C(Cl)C(Cl)(Cl)Cl)n1cncn1 (stereo not given)
267 to 270 | Cc1[nH]c2cc(C(=O)c3ccccc3)ccc2c1/C=C/C(=O)c1ccncc1
168 | CN(C)c1cc(CC(C#N)=CNc2ccccc2)cc(N(C)C)c1Cl
69.4 to 70.8 | CCCCCc1cnc(-c2ccc(C#N)cc2)nc1

melting point [°C] | Structure (SMILES)
156 to 158 | CC(=O)NNC(=O)c1cccc(I)c1
120 to 124 | CC(C)(O)CCn1c2ccccc2c2cc(NC(=O)c3ccccc3Cl)ccc21
232 | CC(=O)c1ccc(C(C)(c2ccc(C(C)=O)cc2)c2ccc(C(C)=O)cc2)cc1
185 to 186 | NS(=O)(=O)c1ccc(-n2nc(CCCNC(=O)Nc3ccc(C(F)(F)F)cc3)cc2-c2ccccc2)cc1
132 to 134 | COc1cccc(-c2ccc(-c3ccccc3S(=O)(=O)Nc3onc(C)c3C)cc2)n1
90 to 92 | C=CCc1c(OCc2ccccc2)ccc2c(=O)ccoc12
168 to 169 | Cc1nc(N(C)Cc2ccco2)c2nc(-c3ccccc3)cc-2[nH]1
74 to 77 | CCC(C(=O)O)c1ccc2c(c1)Cc1ccccc1S2 (stereo not given)
156 | COC(=O)c1cc(F)c(-n2c(=O)[nH]n(C)c2=O)cc1F
86 to 87 | COc1ccccc1OCC1SCCN1C(=O)CS (stereo not given)
168 | CN(C(=O)c1ccccc1)C(=O)c1nc(Cl)c(Cl)[nH]1
287 to 291 | COCCNC(=O)c1n[nH]c2c(=O)[nH]c3cc(Cl)ccc3c(=O)c12
173 to 175 | Cc1nc(N2CCN(Cc3ccc(F)cc3)C2=O)sc1C(=O)NCc1cnn(C)c1
140 | CCCCC1=Nc2ccccc2C(=O)C1
146 | O=CC1=C(c2ccc3sccc3c2)N2CCN=C2S1
208 to 210 | CC(C)(C)OC(=O)N1CCn2c(C#N)c(-c3cccc(F)c3)c(C(N)=O)c2C1
197 | O=C(c1ccc(Cl)cc1)c1c(Cl)cc2n1CCC2C(=O)O (stereo not given)
86 to 88 | COc1nc2cc([N+](=O)[O-])c(C)c(C(=O)N[C@@H](Cc3ccccc3)C(=O)OC(C)(C)C)c2nc1OC
203 to 206 | O=C1Nc2cc(-c3ccco3)ccc2C2CCCC12F (stereo not given)
210 to 212 | O=C(CNc1ccccc1)Nc1ccc(Cl)cc1C(=O)O
95 to 96 | C=CCC(CCC(CC=C)(C(=O)c1ccc(NCCO)cc1)N(C)C)(C(=O)c1ccc(NCCO)cc1)N(C)C (stereo not given)
182 to 183 | CCN(CC)c1nc(Nc2ccc3cc(-c4ccccc4)c(=O)oc3c2)nc(N2CCCC(CO)C2)n1 (stereo not given)
153 to 155 | Nc1cc(O)c(C(=O)NCC2CN(Cc3ccccc3)CCO2)cc1Cl (stereo not given)
104 to 105 | COC(=O)[C@@H]1O[C@H](c2ccc(OC)cc2)N(C(=O)OC(C)(C)C)[C@H]1c1ccccc1
181 to 184 | COc1ccc(NC(=O)C23CC4CC(CC(C4)C2)C3)cc1

melting point [°C] | Structure (SMILES)
97 to 99 | C=CCC(C(=O)NC)c1ccccc1 (stereo not given)
106 | Cc1cc(-n2cncn2)c2cccc(OCc3c(Cl)ccc(S(=O)(=O)N4CCC[C@H]4C(=O)NCCN(C)C)c3Cl)c2n1
187 to 189 | O=C1COc2ccc(N3C(=O)C4=C(CCCC4)C3=O)cc2N1CC1CCOCC1
143 | Cc1cc(-c2cc(C(F)(F)F)n3ncc(C(=O)Nc4cccc(S(=O)(=O)N5CCN(C)CC5)c4)c3n2)ccc1Cl
78 | C(=C\c1cccs1)/c1ncon1
58 to 60 | COc1ccc(C2(C#Cc3cccc(NC(C)=O)c3)CCCC(=O)C2)cc1OC1CCCC1 (stereo not given)
64.5 to 66 | O=C(N1CCCCCC1)N1CC(Oc2cccc(C(F)(F)F)c2)C1
87 to 92 | CCCCCC(O)CCCC(Cc1ccc(C=CC(=O)O)cc1)C(C)=O (stereo not given)
72 to 76 | C=CCNC(=O)N1CC(Oc2ccccn2)C1
125 to 129 | CC1(C)CCC(C)(C)C2=C1CC(C(=O)O)C2
170 to 177 | Nc1nc2c(ncn2COC(COCc2ccccc2)COCc2ccccc2)c(=O)[nH]1
255 to 260 | CC1(C)OC(=O)Nc2ccc(-c3cc(C#N)cs3)cc21
65 to 67 | COC1=C(OCCCCCc2ccccc2)C2OC2(C=O)C=C1 (stereo not given)
135 | COC(=O)c1cc(Cl)c(N)c2c1OCC2
193 to 194 | O=C(Nc1ccc([N+](=O)[O-])cc1O)Nc1cc(Cl)ccc1O
78.4 to 79 | Cn1c(C(=O)N[C@H]2CCCC[C@H]2C(=O)N[C@H](C#N)CO)cc2ccccc21
148 to 149 | CCCCN(CC)c1nc(C)nc2c1NC(=S)CN2c1ccc(C(C)C)cc1Br
242 to 248 | CON=Cc1c[nH]c(-c2ccc(F)cc2)c1-c1ccncc1
268 to 270 | O=c1cc(-c2ccc([N+](=O)[O-])cc2)c2c(O)cc(O)cc2o1
137 | Fc1ccc(Cl)c(-c2c(Cl)nc3ncnn3c2Cl)c1
181 to 182 | COc1ccc(-c2c(C(C)=O)c(CBr)nc3cc(OC)c(OC)cc23)cc1OC
149 to 151 | Cc1nc(-n2ccc(C3CC3)cc2=O)sc1C(=O)NCc1ccccc1
176 | CC#CC(=O)N[C@H]1CC[C@H](CCN2CCN(c3nccc4c3OCC4)CC2)CC1
186 to 188 | CCc1cccc(CC)c1C(=O)Nc1cccc2c1CCN(C)C2
177 to 179 | COC(=O)C1=CC(C(=O)OC)NC(=O)N1 (stereo not given)

melting point [°C] | Structure (SMILES)
177 to 180 | C=C1CC(c2ccc(Br)s2)N(C)C1=O (stereo not given)
147 to 148 | CNC(=O)/C=C/c1cccc(Br)c1
40 | O=C(OCCCCl)c1ccc([N+](=O)[O-])cc1[N+](=O)[O-]
175 to 178 | CC(=O)C(=Cc1cc(O)c(O)c([N+](=O)[O-])c1)C(C)=O
157 | COc1nn(-c2cccc(N(C)C(C)=O)c2)c(=O)n(Cc2ccc(Cl)cc2)c1=O
101 to 102 | CN(C)C(=O)c1ccc(-c2ccc(Cl)cc2)o1
106 to 108 | CCC(=O)NCCC1CCc2cc(F)c3c(c21)C=CCO3 (stereo not given)
158 to 160 | CCN1CC(OCC=C(C)C)(C(F)(F)F)c2cc(Cl)ccc2NC1=O (stereo not given)
143 | COc1cc2c(c(Cl)c1Cl)C(=O)C(C)(C(C)C)C2 (stereo not given)
51 | CCCCCCCCCc1cnc(-c2ccc(OCc3ccc(CCCCCC)cc3)cc2)nc1
138 | COC(=O)Cc1cc(NC(=O)OC(C)(C)C)c(NC(=O)CC(=O)c2cccc(C#N)c2)cc1C#Cc1ccccc1
99 to 100 | CCCNC(=Nc1ccc(Cl)cc1)Nc1ncccc1OCc1c(F)cccc1F
200 to 202 | Nc1c(Cl)cc(Cn2nc(-c3ccc(Cl)c(Cl)c3)oc2=O)c(O)c1Cl
78 to 82 | COC(=O)CCC(=O)Nc1cccc(Oc2nc3ccccc3s2)c1
108 to 109 | O=C(NCCCc1ccncc1)N(CCC(F)(F)F)CCC12CC3CC(CC(C3)C1)C2
83 to 87 | CCc1cnc(C2=NC(C)(C(C)C)C(=O)N2)c(C(=O)OC(C)CC)c1 (stereo not given)
122 to 123 | CN(C)CCNNc1ccc(CO)c2oc3ccc(O)cc3c(=O)c12
93 to 95 | CC(C)Nc1cccnc1N1CCN(C(=O)c2ccc(C(=O)NCCOCCO)cn2)CC1
147 to 148 | O=[N+]([O-])c1ccc(SCCc2c[nH]cn2)nc1
195 to 196 | COc1ccc(-n2c(=O)n(O)c(=O)c3cc(F)c(N4CCN(C)CC4)cc32)cc1
275 to 276 | O=C1N[C@@H](Cc2ccccc2)C(=O)N/C1=C\c1ccccc1
163 to 166 | COc1ccc(C(=O)C(=O)c2cccc(-c3ccc(S(C)(=O)=O)cc3)c2-c2ccccc2)cc1Cl
149 to 151 | CC1(C)CCC(C)(C)c2nc3c(nc21)CCc1c(-c2ccc(C(=O)O)cc2)cn(Cc2cccnc2)c1-3

Structure (SMILES) | melting point [°C]
O=C1c2ccccc2C2(c3ccc(Cl)cc3)NCCN12 (stereo not given) | 166 to 168
O=C(O)c1cn(CC2CCCC2)c2cc(Cl)ccc12 | 181 to 184
